US20170071976A1, “PHARMACEUTICAL SOLUTION HAVING ANTI-TUMOR EFFECT-ENHANCING AND TOXICITY-REDUCING EFFECT, AND PHARMACEUTICAL COMPOSITION COMPRISING SAME” (priority 2014, published 2017)

Columns and labels:
Test in all cases: MTT assay: in vitro inhibition of growth by deuterium oxide
Type in all cases: cell-based, human
[1] = test system: 5637 bladder cancer cell line
Method: (§1) Studies of in vitro inhibition of growth of human tumor cells by deuterium oxide, by the MTT (3-(4,5-dimethylthiazol-2-yl)-2,5-diphenyltetrazolium bromide) assay
(§2) 1. A bottle of cells that had been cultured for 3 to 4 days and were in the exponential phase was taken, a suitable amount of 0.25% Trypsin-EDTA solution was added thereto to detach the cells from the wall, and the cells were suspended in 10 ml RPMI 1640 medium containing 10% FBS. 2. The cells were counted on a hemocytometer, and generally viable cells should be not less than 97%. 3. The cell suspension was diluted with a complete medium to prepare a suspension containing 1×10^4 cells/ml. 4. To each well of a 12-well culture plate, 300 μl cell suspension was added. The addition of cells should be finished within 4 hours. The plate was placed in an incubator at 37° C. and 5% CO2 for 24 hours. 5. Powdery RPMI Medium 1640 (Gibco, USA, Cat#: 31800-022) was dissolved in deuterium oxide (provided by Cambridge Isotope Laboratories, Inc. (US)) to prepare a cell culture medium (unless particularly specified, all culture media used in the Examples hereinafter were prepared from powdery RPMI Medium 1640 and deuterium oxide) at a concentration shown in Table 1, which was added into the cell culture plate. 6. The cell culture plate was incubated for 3 days in an incubator at 37° C., 5% CO2 and 100% humidity. 7. A solution of 1 mg/ml MTT was prepared in a serum-free RPMI1640 medium, added to the plate at 200 μl/well, and incubated at 37° C. for 4 hours, to allow MTT to be reduced to formazan. 8. The supernatant was removed by pipetting, 200 μl DMSO was added to dissolve formazan, and the solution was well mixed on a platform shaker. 9. Absorbance of each well was measured on an ELISA reader with a detection wavelength of 570 nm and a reference wavelength of 450 nm. 10. The assay was repeated one more time.
(§3) Calculation of results: Inhibition of growth of tumor cells by deuterium oxide was calculated using tumor cells treated with sodium chloride physiological solution as a control group. Inhibition of cell growth was plotted against amounts of deuterium oxide to obtain a dose response curve, from which the half maximal inhibitory concentration (IC50) of deuterium oxide was derived.
(§4) Inhibition of tumor cell growth (%)=(1−OD test/OD control)×100%

[2] = test system: ASPC-1 pancreatic cancer cell line
Method: as §1, §2, §3, §4

[3] = test system: CFPAC-1 pancreatic cancer cell line
Method: as §1, §2, §3, §4

[4] = test system: HCT-116 colon cancer cell line
Method: as §1, §2, §3, §4

K562 leukemia cell line = test system: K562 leukemia cell line
Method: as §1, §2, §3, §4

[5] = test system: MCF-7 breast cancer cell line
Method: as §1, §2, §3, §4

[6] = test system: NCI-1975 lung cancer cell line
Method: as §1, §2, §3, §4

[7] = test system: PC-3 prostate cancer cell line
Method: as §1, §2, §3, §4

[2H]O[2H] [Deuterium oxide]
Inhibition of growth (%) ([1]; deuterium oxide 1.2% (v/v)): 0.84%
Inhibition of growth (%) ([1]; deuterium oxide 2.5% (v/v)): −3.09%
Inhibition of growth (%) ([1]; deuterium oxide 5% (v/v)): 10.44%
Inhibition of growth (%) ([1]; deuterium oxide 10% (v/v)): 16.15%
Inhibition of growth (%) ([1]; deuterium oxide 20% (v/v)): 25.56%
Inhibition of growth (%) ([1]; deuterium oxide 30% (v/v)): 36.69%
Inhibition of growth (%) ([1]; deuterium oxide 40% (v/v)): 44.32%
Inhibition of growth (%) ([1]; deuterium oxide 50% (v/v)): 52.11%
Inhibition of growth (%) ([1]; deuterium oxide 60% (v/v)): 59.76%
Inhibition of growth (%) ([1]; deuterium oxide 70% (v/v)): 74.86%
Inhibition of growth (%) ([1]; deuterium oxide 80% (v/v)): 88.43%
IC10 ([1]; expressed in v/v %): 4.46%
IC50 ([1]; expressed in v/v %): 59.08%
Inhibition of growth (%) ([2]; deuterium oxide 1.2% (v/v)): 0.64%
Inhibition of growth (%) ([2]; deuterium oxide 2.5% (v/v)): 6.35%
Inhibition of growth (%) ([2]; deuterium oxide 5% (v/v)): −0.20%
Inhibition of growth (%) ([2]; deuterium oxide 10% (v/v)): −4.88%
Inhibition of growth (%) ([2]; deuterium oxide 20% (v/v)): −7.26%
Inhibition of growth (%) ([2]; deuterium oxide 30% (v/v)): 9.70%
Inhibition of growth (%) ([2]; deuterium oxide 40% (v/v)): 23.99%
Inhibition of growth (%) ([2]; deuterium oxide 50% (v/v)): 44.14%
Inhibition of growth (%) ([2]; deuterium oxide 60% (v/v)): 52.22%
Inhibition of growth (%) ([2]; deuterium oxide 70% (v/v)): 70.14%
Inhibition of growth (%) ([2]; deuterium oxide 80% (v/v)): 85.83%
IC10 ([2]; expressed in v/v %): 11.80%
IC50 ([2]; expressed in v/v %): 57.00%
Inhibition of growth (%) ([3]; deuterium oxide 1.2% (v/v)): 6.82%
Inhibition of growth (%) ([3]; deuterium oxide 2.5% (v/v)): 14.05%
Inhibition of growth (%) ([3]; deuterium oxide 5% (v/v)): 13.42%
Inhibition of growth (%) ([3]; deuterium oxide 10% (v/v)): 10.75%
Inhibition of growth (%) ([3]; deuterium oxide 20% (v/v)): 14.84%
Inhibition of growth (%) ([3]; deuterium oxide 30% (v/v)): 26.16%
Inhibition of growth (%) ([3]; deuterium oxide 40% (v/v)): 33.67%
Inhibition of growth (%) ([3]; deuterium oxide 50% (v/v)): 45.30%
Inhibition of growth (%) ([3]; deuterium oxide 60% (v/v)): 61.42%
Inhibition of growth (%) ([3]; deuterium oxide 70% (v/v)): 77.94%
Inhibition of growth (%) ([3]; deuterium oxide 80% (v/v)): 91.85%
IC10 ([3]; expressed in v/v %): 3.20%
IC50 ([3]; expressed in v/v %): 59.43%
Inhibition of growth (%) ([4]; deuterium oxide 1.2% (v/v)): 11.81%
Inhibition of growth (%) ([4]; deuterium oxide 2.5% (v/v)): 31.55%
Inhibition of growth (%) ([4]; deuterium oxide 5% (v/v)): 21.64%
Inhibition of growth (%) ([4]; deuterium oxide 10% (v/v)): 18.58%
Inhibition of growth (%) ([4]; deuterium oxide 20% (v/v)): 23.32%
Inhibition of growth (%) ([4]; deuterium oxide 30% (v/v)): 30.21%
Inhibition of growth (%) ([4]; deuterium oxide 40% (v/v)): 37.43%
Inhibition of growth (%) ([4]; deuterium oxide 50% (v/v)): 48.43%
Inhibition of growth (%) ([4]; deuterium oxide 60% (v/v)): 66.31%
Inhibition of growth (%) ([4]; deuterium oxide 70% (v/v)): 70.42%
Inhibition of growth (%) ([4]; deuterium oxide 80% (v/v)): 94.62%
IC10 ([4]; expressed in v/v %): 0.25%
IC50 ([4]; expressed in v/v %): 51.13%
Inhibition of growth (%) (K562 leukemia cell line; deuterium oxide 1.2% (v/v)): −2.47%
Inhibition of growth (%) (K562 leukemia cell line; deuterium oxide 2.5% (v/v)): 6.51%
Inhibition of growth (%) (K562 leukemia cell line; deuterium oxide 5% (v/v)): 4.23%
Inhibition of growth (%) (K562 leukemia cell line; deuterium oxide 10% (v/v)): −7.60%
Inhibition of growth (%) (K562 leukemia cell line; deuterium oxide 20% (v/v)): 9.10%
Inhibition of growth (%) (K562 leukemia cell line; deuterium oxide 30% (v/v)): 22.72%
Inhibition of growth (%) (K562 leukemia cell line; deuterium oxide 40% (v/v)): 39.51%
Inhibition of growth (%) (K562 leukemia cell line; deuterium oxide 50% (v/v)): 55.51%
Inhibition of growth (%) (K562 leukemia cell line; deuterium oxide 60% (v/v)): 70.13%
Inhibition of growth (%) (K562 leukemia cell line; deuterium oxide 70% (v/v)): 88.59%
Inhibition of growth (%) (K562 leukemia cell line; deuterium oxide 80% (v/v)): 93.24%
IC10 (K562 leukemia cell line; expressed in v/v %): 14.83%
IC50 (K562 leukemia cell line; expressed in v/v %): 51.72%
Inhibition of growth (%) ([5]; deuterium oxide 1.2% (v/v)): 9.78%
Inhibition of growth (%) ([5]; deuterium oxide 2.5% (v/v)): 11.04%
Inhibition of growth (%) ([5]; deuterium oxide 5% (v/v)): 15.71%
Inhibition of growth (%) ([5]; deuterium oxide 10% (v/v)): 22.47%
Inhibition of growth (%) ([5]; deuterium oxide 20% (v/v)): 31.60%
Inhibition of growth (%) ([5]; deuterium oxide 30% (v/v)): 40.38%
Inhibition of growth (%) ([5]; deuterium oxide 40% (v/v)): 52.45%
Inhibition of growth (%) ([5]; deuterium oxide 50% (v/v)): 63.22%
Inhibition of growth (%) ([5]; deuterium oxide 60% (v/v)): 86.41%
Inhibition of growth (%) ([5]; deuterium oxide 70% (v/v)): 89.06%
Inhibition of growth (%) ([5]; deuterium oxide 80% (v/v)): 98.08%
IC10 ([5]; expressed in v/v %): 3.28%
IC50 ([5]; expressed in v/v %): 61.29%
Inhibition of growth (%) ([6]; deuterium oxide 1.2% (v/v)): 0.84%
Inhibition of growth (%) ([6]; deuterium oxide 2.5% (v/v)): −8.29%
Inhibition of growth (%) ([6]; deuterium oxide 5% (v/v)): −7.44%
Inhibition of growth (%) ([6]; deuterium oxide 10% (v/v)): −4.95%
Inhibition of growth (%) ([6]; deuterium oxide 20% (v/v)): 5.60%
Inhibition of growth (%) ([6]; deuterium oxide 30% (v/v)): 6.66%
Inhibition of growth (%) ([6]; deuterium oxide 40% (v/v)): 24.03%
Inhibition of growth (%) ([6]; deuterium oxide 50% (v/v)): 39.10%
Inhibition of growth (%) ([6]; deuterium oxide 60% (v/v)): 51.93%
Inhibition of growth (%) ([6]; deuterium oxide 70% (v/v)): 79.65%
Inhibition of growth (%) ([6]; deuterium oxide 80% (v/v)): 87.23%
IC10 ([6]; expressed in v/v %): 27.00%
IC50 ([6]; expressed in v/v %): 62.61%
Inhibition of growth (%) ([7]; deuterium oxide 1.2% (v/v)): 0.46%
Inhibition of growth (%) ([7]; deuterium oxide 2.5% (v/v)): 4.33%
Inhibition of growth (%) ([7]; deuterium oxide 5% (v/v)): −2.50%
Inhibition of growth (%) ([7]; deuterium oxide 10% (v/v)): 8.81%
Inhibition of growth (%) ([7]; deuterium oxide 20% (v/v)): −16.46%
Inhibition of growth (%) ([7]; deuterium oxide 30% (v/v)): 26.67%
Inhibition of growth (%) ([7]; deuterium oxide 40% (v/v)): 43.19%
Inhibition of growth (%) ([7]; deuterium oxide 50% (v/v)): 59.42%
Inhibition of growth (%) ([7]; deuterium oxide 60% (v/v)): 60.84%
Inhibition of growth (%) ([7]; deuterium oxide 70% (v/v)): 73.42%
Inhibition of growth (%) ([7]; deuterium oxide 80% (v/v)): 87.08%
IC10 ([7]; expressed in v/v %): 9.35%
IC50 ([7]; expressed in v/v %): 61.34%
